Results on 1 compound are retold here after patent US10314777B2, “Delivery of hydrophobic bioactive agents” (priority 2010, dated 2019).

The data set is described as follows: Solubility of the retinoate in the carrier GRANSIL GTS. In kind it is physicochemical. The text has this:
In some embodiments, a bioactive agent is a vitamin A derivative such as a retinoid. As an example, some embodiments include hydroxyanasatil retinoate, a form of all-trans retinoate sold by Concert, LLC, Memphis, Tenn., optionally in an amount of 0.1 percent by weight. This material is insoluble at this concentration in the carrier sold under the tradename GRANSIL GTS, which is a mixture of ethyl trisiloxane and polysilicone-11. […] Upon exposure to the environment for application to the skin, the carrier volatilizes allowing the crystalline retinoate to resolubilize in the solvent for increased penetration of the skin.

As to `COc1ccc(C(=O)COC(=O)\C=C(C)/C=C/C=C(C)/C=C/C2=C(C)CCCC2(C)C)cc1` [hydroxyanasatil retinoate], the “solubility in carrier GRANSIL GTS” value (0.1 percent by weight in ethyl trisiloxane and polysilicone-11) was “insoluble”. Also, the “state in carrier GRANSIL GTS with non-volatile solvent” value (0.1 percent by weight, dimethyl isosorbide added at 0.8%) was “mixed state of solubilized material and crystalline material”.
